From US8067470B2, “Linoleic acid preparations for the topical treatment of male and female pattern androgenetic alopecia, age-related alopecia, and keratosis pilaris” (priority 2008, dated 2011)

Key:
balding scalp = experiment: observation of balding scalp in a person treated with 13-cis-retinoic acid for cystic acne; assay type: in vivo, human; conditions: person treated for five months for cystic acne
Text: Linoleic acid has been proven in vitro to prevent growth of P. acnes in culture at concentrations similar to the normal level found in follicles not influenced by DHT stimulation of oil production. […] 8 Leyden, James J. M D et al., “Qualitative and Quantitative Changes in Cutaneous Bacteria Associated with Systemic Isotretinoin Therapy for Acne Conglobata”, Journal of Investigative Dermatology, Vol. 86, 390-393, 1986.

P. acnes [1] = conditions: parallel to reduction of sebaceous gland oil production; cited from earlier work
male pattern AGA = conditions: cited from earlier work
keratosis pilaris = experiment: topical linoleic acid oil in patients with keratosis pilaris; assay type: in vivo, human; conditions: in the form of an oil, more than 20 patients
Text: In pre-pubertal children prior to hormonal stimulation of facial oil production, it can be seen transiently on the cheeks, typically the least oily part of the face. […] The histology is reminiscent of the intra-follicular hyperkeratosis and low-level microinflammation seen in AGA follicles, except that AGA scalp follicles are larger and have large sebaceous glands opening into them. It is likely that localized linoleic acid deficiency with resultant aberrations in keratinization and in inflammation, due to permissive changes in microflora such as P. acnes and yeasts, is its etiology. Topical linoleic acid preparations would therefore be a logical approach to the treatment of the condition.

P. acnes [2] = conditions: prior art of this inventor; cited from earlier work

## CC1=C(/C=C/C(C)=C/C=C/C(C)=C\C(=O)O)C(C)(C)CCC1 [13-cis-retinoic acid]
Balding scalp
  terminal (full sized) hair growth in balding scalp: increased terminal (full sized) hair growth
P. acnes [1]
  P. acnes counts in acne-prone skin: parallel and equal reduction in P. acnes counts

## CC(C)(C)NC(=O)[C@H]1CC[C@H]2[C@@H]3CC[C@H]4NC(=O)C=C[C@]4(C)[C@H]3CC[C@]12C [finasteride]
Male pattern AGA; after one month, oral
  recipients who lost less scalp hair: 95%
Male pattern AGA; after six months, oral
  recipients who began regrowing lost hairs: 67%
Male pattern AGA; in vivo
  balding recipients showing poor or no response: ≥ 35%

## CCCCC/C=C\C/C=C\CCCCCCCC(=O)O [linoleic acid]
Keratosis pilaris
  roughness and redness of clinical keratosis pilaris: amelioration of both the roughness and redness
P. acnes [2]
  concentration required to completely inhibit growth of P. acnes in culture: 2%
